Where two headings read alike, the source gives them in different places. One block for each compound: values may come before it. Where a SMILES comes first, the peptide text is derived from it. The star is where a group is joined. PNA(A) = NCCN(CC(=O)*)C(=O)Cn1cnc2c(N)ncnc21
Key:
[1] = molecular target: T1, PKC-α (Rattus norvegicus, UniProt P05696); test: Competition of PRE with PKC-α antibody binding on Western blot, Protocol A, C6Cx43 lysate; settings: C6Cx43 cells
T1 construct: C6Cx43 cells (rat glioma transfected cells overexpressing connexin 43); endogenous in cells; host or cells: C6Cx43 rat glioma cells (transfected with connexin 43, not with PKC)
Protocol: The ability of the PRE 1, 2 and 3 (see Table 3 above) to interfere with the binding of a PKC-α-specific polyclonal antibody to PKC-α was determined using the following protocol.
Cell lysates from either IMR-32 (human neuroblastoma) cells or C6Cx43 cells (rat glioma transfected cells overexpressing connexin 43) were obtained using standard protocols and the proteins of the lysate were separated by SDS PAGE electrophoresis and electrotransferred onto a nitrocellulose membrane. The membrane was incubated for 30 minutes in blocking buffer (TBST) containing the test peptide at either 5× or 20× the concentrations of the primary antibody. A primary polyclonal antibody specific for PKC-α (Santa Cruz Biotechnology, Inc., CA) was then added (15 μg/ml) and the membrane incubated for a further 45 minutes. Finally, the primary antibody was detected with a secondary antibody conjugated to alkaline phosphatase using standard procedures. The intensity of the band corresponding to PKC-α was assessed by scanning and densitometry using the Gel-Pro software (Media Cybernetics) to obtain relative band intensities (average of 3 replicas). Control assays were conducted as described above except that blocking buffer without peptide was used.
The results are expressed as relative band intensity and as a percentage of the intensity of the corresponding band in the control assay (“Relative intensity (%)”). “% inhibition” relates to the percentage of the PKC-α band that is inaccessible to the antibody.

[2] = tested on: IMR-32 human neuroblastoma cells; settings: IMR-32
Protocol: The ability of compounds PKI 1, PKI 2 and PKI 3 to inhibit cancer cell proliferation was tested in vitro using the human neuroblastoma cell line IMR-32. Monolayer cell cultures were trypsinized and the test compound was added at the doses indicated in Table 24 and internalized by pinocytic endocytosis using Influx TM pinocytic cell-loading reagent, a kit from Molecular Probes (Eugene, Oreg.) following the manufacturer's recommendations. The indicated doses refer to the concentration in the loading medium, which was used on 1×10^6 cells in a 10 μl volume, i.e. contained 10 μg to 100 ug of test compound that provides […] per cell. […] The cells were treated on day 0 of the experiment. The cells loaded with test compound were cultured in 96 well plates (5,000 cells in 100 μl per well), and the proliferation was monitored over 3 consecutive days. The increase in cell population was quantified using a Hoechst reagent-based assay (modified from Rao and Otto, 1992, Analytical Biochem. 207:186-192) that measures the total DNA of the population. Fluorescence was measured using a Millipore CytoFluor 2350 plate reader (excitation at 360 nm and emission at 460 nm). The measurements were obtained as relative fluorescence intensity, a value that is directly correlated to the total number of cells. Data are expressed as a percentage of matching controls that were supplemented with culture medium alone.
The ability of the compound TIM 9 to inhibit cancer cell proliferation was tested in vitro using the human neuroblastoma cell line IMR-32 and following the general protocol described in Example 14.
The ability of the compound TIM 11 to inhibit IMR-32 cancer cell proliferation was tested in vitro following the general protocol described in Example 14.
The ability of the compound TIM 10 to inhibit cancer cell proliferation was tested in vitro using the human neuroblastoma IMR-32 cell line and following the general protocol described in Example 14.

[3] = Repeat-dose toxicity study in mice; type: in vivo, mouse; settings: 72-hour dosing schedule up to 75 days, subcutaneous
Description: A dosage of 25 micrograms per mouse was provided to a cohort of mice by subcutaneous injection. No physiological, behavioral or external signs of toxicity were observed.

[4] = Flocculation of blood serum and plasma component; settings: pigs, mice and human
Description: In order to prevent this flocculation and increase the efficacy of the TIM compounds, advantage was taken of the properties of TPGS (alpha tocopherol polyethylene glycol succinate). The adjuvant may also protect the TIM compounds from enzymatic degradation.

[5] = molecular target: PKC beta 1 (Homo sapiens, UniProt P05771); test: Kinase-Glo Luminescent Kinase Assay; type: biochemical; set-up: purchased; settings: read-out: % Inhibition PKC-βI
Protocol: (§1) Compounds TIM 10, 11, 13, 14, 15, and 18-22 (see Table 28) were tested for their ability to inhibit the activity of PKC-alpha, beta 1, delta and epsilon isoforms the Kinase-Glo™ Luminescent Kinase Assay (Promega, Cat # V6712/3/4) following the manufacturer's instructions.

[6] = molecular target: T2, PKC epsilon (Homo sapiens, UniProt Q02156); test: Kinase-Glo Luminescent Kinase Assay; type: biochemical; set-up: purchased; settings: read-out: % Inhibition PKC-ε
T2 sequence (Q02156 1-737): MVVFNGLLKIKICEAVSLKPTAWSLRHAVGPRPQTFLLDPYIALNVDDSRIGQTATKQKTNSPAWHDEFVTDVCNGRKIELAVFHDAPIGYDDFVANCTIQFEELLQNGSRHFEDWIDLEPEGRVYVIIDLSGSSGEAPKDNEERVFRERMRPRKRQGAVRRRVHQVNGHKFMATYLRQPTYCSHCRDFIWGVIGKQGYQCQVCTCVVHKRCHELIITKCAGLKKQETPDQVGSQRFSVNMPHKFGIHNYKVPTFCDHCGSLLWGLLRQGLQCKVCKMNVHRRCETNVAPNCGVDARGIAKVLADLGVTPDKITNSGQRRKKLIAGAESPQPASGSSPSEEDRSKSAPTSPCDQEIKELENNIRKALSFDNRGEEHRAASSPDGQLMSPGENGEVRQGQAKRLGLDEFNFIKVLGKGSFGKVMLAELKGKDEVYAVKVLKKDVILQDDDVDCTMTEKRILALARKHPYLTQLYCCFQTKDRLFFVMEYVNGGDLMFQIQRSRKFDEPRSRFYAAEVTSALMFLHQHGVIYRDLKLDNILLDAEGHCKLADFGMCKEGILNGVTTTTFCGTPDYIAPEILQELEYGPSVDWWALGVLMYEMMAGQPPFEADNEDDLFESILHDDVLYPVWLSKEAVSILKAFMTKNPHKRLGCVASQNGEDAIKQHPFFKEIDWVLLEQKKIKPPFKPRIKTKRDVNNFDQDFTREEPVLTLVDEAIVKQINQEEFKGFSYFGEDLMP
Protocol: as §1

Sequence of PKC beta 1 (P05771 whole entry, canonical isoform): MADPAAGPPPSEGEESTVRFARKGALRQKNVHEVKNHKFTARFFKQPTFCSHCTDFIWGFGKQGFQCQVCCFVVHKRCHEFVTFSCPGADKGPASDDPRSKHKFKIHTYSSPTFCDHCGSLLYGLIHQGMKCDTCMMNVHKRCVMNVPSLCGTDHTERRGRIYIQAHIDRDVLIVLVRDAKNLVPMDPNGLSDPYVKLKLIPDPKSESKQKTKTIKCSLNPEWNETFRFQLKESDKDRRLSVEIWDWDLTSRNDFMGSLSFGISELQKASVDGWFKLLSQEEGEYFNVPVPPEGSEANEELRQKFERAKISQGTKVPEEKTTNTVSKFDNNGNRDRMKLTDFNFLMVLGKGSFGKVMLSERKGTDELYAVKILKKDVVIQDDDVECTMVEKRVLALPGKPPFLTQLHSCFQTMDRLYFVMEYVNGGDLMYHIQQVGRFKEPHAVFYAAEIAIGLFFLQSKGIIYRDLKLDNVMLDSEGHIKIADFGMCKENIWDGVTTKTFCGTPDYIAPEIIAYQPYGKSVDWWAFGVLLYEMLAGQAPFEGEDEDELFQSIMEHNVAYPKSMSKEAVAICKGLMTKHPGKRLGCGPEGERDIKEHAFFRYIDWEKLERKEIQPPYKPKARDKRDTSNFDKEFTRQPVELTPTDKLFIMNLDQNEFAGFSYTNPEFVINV

Band Intensity ([1]; 75 μg): 0.909
Band Intensity ([1]; 300 μg): 0.888
Band Intensity ([1]; 600 μg): 0.889
Band Intensity ([1]; 3.75 mg): 0.603
Band Intensity ([1]; 5.25 mg): 0.599
Band Intensity ([1]; 7.5 mg): 0.589
SMILES: CC[C@H](C)[C@H](NC(=O)[C@H](CO)NC(=O)[C@@H](NC(=O)CNC(=O)[C@@H](NC(=O)[C@H](CC(C)C)NC(=O)[C@H](CC(N)=O)NC(=O)[C@H](CCC(N)=O)NC(=O)[C@H](C)NC(=O)[C@H](CC(=O)O)NC(=O)CNC(=O)CNC(=O)[C@H](CCCCN)NC(=O)[C@@H](NC(=O)[C@H](CCC(=O)O)NC(=O)[C@H](CCC(N)=O)NC(=O)[C@@H](NC(=O)CNC(=O)[C@H](CCCCN)NC(=O)[C@H](C)NC(C)=O)[C@@H](C)CC)C(C)C)[C@@H](C)CC)[C@@H](C)CC)C(N)=O [PRE 3] (Ac-AKGIQEVKGGDAQNLIGISI-NH2)

SMILES: CC[C@H](C)[C@H](NC(=O)[C@H](CO)NC(=O)[C@@H](NC(=O)CNC(=O)[C@@H](NC(=O)[C@H](CC(C)C)NC(=O)[C@H](CC(N)=O)NC(=O)[C@H](CCC(N)=O)NC(=O)[C@H](C)NC(=O)[C@H](CC(=O)O)NC(=O)[C@H](CCCCN)NC(=O)CNC(=O)CNC(=O)CNC(=O)CNC(=O)CNC(=O)CNC(=O)CNC(=O)[C@H](CC(C)C)NC(=O)[C@H](CCCNC(=N)N)NC(=O)[C@H](Cc1ccccc1)NC(=O)[C@H](CCCCNC(=O)CN(CCN)C(=O)Cn1cnc2c(N)ncnc21)NC(=O)[C@H](CCCNC(=N)N)NC(=O)[C@H](CCCNC(=N)N)NC(=O)[C@H](Cc1ccccc1)NC(C)=O)[C@@H](C)CC)[C@@H](C)CC)C(N)=O [TIM 10] (Ac-FRRK(PNA(A))FRLGGGGGGGKDAQNLIGISI-NH2)
% Cell Survival ([2]; 100 μM, 24 Hours): 93%
% Cell Survival ([2]; 100 μM, 48 Hours): 80%
% Cell Survival ([2]; 100 μM, 72 Hours): 77%
% Cell Survival ([2]; 500 μM, 24 Hours): 91%
% Cell Survival ([2]; 500 μM, 48 Hours): 76%
% Cell Survival ([2]; 500 μM, 72 Hours): 73%
% Cell Survival ([2]; 1 mM, 24 Hours): 90%
% Cell Survival ([2]; 1 mM, 48 Hours): 77%
% Cell Survival ([2]; 1 mM, 72 Hours): 70%
% Cell Survival ([2]; 5 mM, 24 Hours): 81%
% Cell Survival ([2]; 5 mM, 48 Hours): 76%
% Cell Survival ([2]; 5 mM, 72 Hours): 66%
toxicity on repeated dosing [3]: no evidence of toxicity
toxicity on repeated dosing ([3]; listed as PhGalpha1): No evidence of toxicity
flocculation of a component of blood serum and plasma [4]: cause flocculation
inhibition at 15 µM ([5]; 15.0 μM): 74%
inhibition at 30 µM ([5]; 30.0 μM): 100%
inhibition at 15 µM ([6]; 15.0 μM): -11%
inhibition at 30 µM ([6]; 30.0 μM): 85%
